Source: patent US20100297156A1, “ANALOGUES OF PHOSPHATIDYLINOSITOL MANNOSIDES” (INDUSTRIAL RESEARCH LIMITED, priority 2006, published 2010)

Assays:
[1] = system: bovine dendritic cells (DC); test: IL-12 induction in in vitro bovine dendritic cell (DC) assay, IL-12 ELISA; type: cell-based; settings: 50 μg of each compound; supernatants collected 48 hours after stimulation
Protocol: Peripheral blood mononuclear cells (PBMCs) were isolated from heparinized blood of cattle by density-gradient centrifugation. Cells were adjusted to 10^7/ml in RPMI-1640 medium containing 10% heat-inactivated FCS, 10 mM HEPES, 5×10^−5 M 2-mercaptoethanol. Non-adherent cells were removed after 3 hours by washing with warm phosphate buffered saline (PBS). Adherent cells were then incubated in complete medium with 0.2 U/mI of recombinant bovine GM-CSF and 200 U/ml of recombinant bovine IL-4 (Both from Serotec, Oxford, UK), replenished daily. After 3-4 days, fresh media and cytokines were added to cells. Cells were harvested after 7-10 days of culture, washed three times and adjusted to desired cell numbers. […]
(§1) Plates (Maxisorp, Nunc, Denmark) were coated with 8 μg/ml anti-IL-12 (B @ D Pharmaceuticals) and incubated overnight at room temperature. […] Following the final washing step, TMB substrate was added, the reaction was stopped by the addition of H2SO4, and the absorbance values were read at 450 nm.
Th1 inducing activities of compounds 1.9 and 2.5 were tested in an in vitro bovine dendritic cell (DC) assay (FIG. 1). […] Supernatants were collected 48 hours after stimulation, and IL-12 levels measured.

[2] = system: mouse dendritic cells (DC); test: IL-12 induction in in vitro mouse dendritic cell (DC) assay, IL-12 ELISA; type: cell-based; settings: 50 μg of each compound; supernatants collected 48 hours after stimulation
Protocol: Bone marrow contents of C57BU6 mice were obtained from the femurs, by flushing the inside of the bones with media (see below). Cells were then incubated in complete medium with 0.2 U/mI of recombinant GM-CSF and 200 U/ml of recombinant IL-4 (Both from Serotec, Oxford, UK), replenished daily. After 3-4 days, fresh media and cytokines were added to cells. Cells were harvested after 7-10 days of culture, washed three times and adjusted to desired cell numbers. When harvested, cells were more than 95% DCs based on the following: DCs lacked B and T cells markers had high expression of MHC class 2 and class 1 (Serotec), and had low expression of CD11a (Serotec) and CD14 (Serotec), and expressed CD11c (Serotec). […]
as §1
IL-10 and IL-12 inducing activities of compounds 1.9, 2.5, 3.5, 4,6, 5.3, 6.2, 7.10, 8.6, 9.2, and 10.3 were tested in an in vitro mouse dendritic cell (DC) assay (FIG. 2). […] Supernatants were collected 48 hours after stimulation, and IL-12 and IL-10 levels measured.

| SMILES | Induction of IL-12 on bovine dendritic cells [1] | Induction of IL-12 on mouse dendritic cells [2] |
| --- | --- | --- |
| CCCCCCCCCCCCCCCCO[C@H](COC(=O)CCCCCCCCCCCCCCC)COP(=O)(O)O[C@@H]1C(O[C@H]2OC(CO)[C@@H](O)[C@H](O)C2O)C(O)[C@@H](O)[C@H](O)C1O[C@H]1OC(CO)[C@@H](O)C(O)[C@H]1O (stereo partly drawn) [Compound 1.9, 2,6-(Di-O-α-D-mannopyranosyl)-1-O-(1-O-hexadecanoyl-2-O-hexadecyl-sn-glycero-3-phosphoryl)-D-myo-inositol] | very high levels of IL-12 | the most potent inducing more IL-12 than the positive controls MPL and PAMCSK |
| CCCCCCCCCCCCCCCCOC[C@H](COP(=O)(O)O[C@@H]1C(O[C@H]2OC(CO)[C@@H](O)[C@H](O)C2O)C(O)[C@@H](O)[C@H](O)C1O[C@H]1OC(CO)[C@@H](O)C(O)[C@H]1O)OC(=O)CCCCCCCCCCCCCCC (stereo partly drawn) [Compound 4.6, 2,6-(Di-O-α-D-mannopyranosyl)-1-O-(2-hexadecanoyl-1-O-hexadecyl-sn-glycero-3-phosphoryl)-D-myo-inositol] | – | the most potent inducing more IL-12 than the positive controls MPL and PAMCSK |
